Data published in patent publication US20230277452A1, “COMPOSITIONS, DEVICES AND METHODS FOR TREATING NASAL, OTIC AND OTHER TISSUE INFECTION AND/OR INFLAMMATION” (priority 2020, published 2023).

Legend:
in vivo = test: in vivo
Method: The control article was 0.9% saline.
Blood was collected (via a jugular vein cannula inserted during surgery) during the 10-day post-dose phase for pharmacokinetics, hematology, clinical chemistry, glucose, and morning cortisol analysis.
Because of the variability in the volume of the sinus in sheep, the total volume varied from 5 to 15 mL. Doses calculated by body weight and body surface area (BSA) are also shown.

[1] = Recovery of force-degraded fluticasone propionate spiked into placebo and of active cream, HPLC; assay type: physicochemical
[2] = Recovery of force-degraded MFM spiked into placebo cream and of active cream (0.1% MFM), HPLC; assay type: physicochemical; conditions: for Peak Area MFM / Peak Area RRT = 0.61 / Peak Area RRT = 0.71 / Peak Area RRT = 0.79 / Peak Area RRT = 0.87 / Peak Area RRT = 0.96 / Peak Area RRT = 1.07 / Peak Area RRT = 1.12 / Total MFM-Related Area: Spiked into placebo
Method: MFM neat and degraded materials were spiked into placebo cream (lot #2020-11-01) to investigate potential partitioning effects and peak interferences and to compare spiked and active cream samples by the procedure in Table 50 with the exception that for acid, base and peroxide degradations, the additions of HCl, NaOH and peroxide were calculated accordingly.
Percent recovery of Force-Degraded Materials Spiked into Placebo is provided in Table 51 below while recovery of active cream formulation (0.1% MFM) is provided in Table 52 below.

[3] = Forced degradation of neat mometasone furoate monohydrate, percent recovery and degradant peaks by HPLC; assay type: physicochemical; design: key to Degradant peak, RRT 0.61 with respect to MFM / Degradant peak, RRT 0.71 with respect to MFM / Degradant peak, RRT 0.79 with respect to MFM / Degradant peak, RRT 0.87* with respect to MFM / Degradant peak, RRT 1.07 with respect to MFM / Degradant peak, RRT 1.12* with respect to MFM / Degradant peak, RRT 0.96* with respect to MFM: ≥0.05% Peak Area; detected above the 0.05% cutoff; “—” indicates no peak; conditions: for Degradant peak, RRT 0.87* with respect to MFM / Degradant peak, RRT 0.96* with respect to MFM / Degradant peak, RRT 1.12* with respect to MFM: related substance; for Actual Amount: neat MFM
Method: Degradation and impurity analysis of the creams was performed using HPLC. The following parameters were used for the analysis of mometasone furoate monohydrate.
Neat mometasone furoate monohydrate (MFM) material was degraded and analyzed for potential chromatographic interference. Briefly, neat MFM was exposed to various conditions to induce degradation including heat (60° C./5 days), light (6 inches away from a white bench light for 5 days), acid (0.1N HCl for 1 hour followed by neutralization with 0.1N NaOH), base (0.1N NaOH for 1 hour followed by neutralization with 0.1N HCl), and oxidation (3% H2O2 for 1 hour). All samples including the degraded samples, control samples (dissolved in HPLC-grade methanol), and the reference solution were analyzed.
Percent recovery is provided in Table 48 below for each condition.
Table 49 below provides the Relative Retention Times (RRTs) and detection ≥0.05% for the samples.

[4] = degraded neat material, 0.1N HC1
[5] = degraded neat material, 0.1N NaOH
[6] = degraded neat material, 3% H2O2
[7] = degraded neat material, 60° C. for 5 days
[8] = degraded neat material, White light for 5 days

CCC(=O)O[C@]1(C(=O)CO)[C@@H](C)C[C@H]2[C@@H]3CCC4=CC(=O)C=C[C@]4(C)[C@@]3(F)[C@@H](O)C[C@@]21C [Betamethasone 17-propionate, betamethasone 17-propionate]
plasma levels detected through (in vivo; in vivo): 3 days post-dose | Tmax (in vivo; sheep plasma, intra-sinus 0.05% betamethasone dipropionate cream, median (range), n = 6): 0.5 (0.5-2) hr | AUCinf (in vivo; sheep, in vivo): 59.3 ± 44.8 ng·h/mL | AUClast (in vivo; sheep, in vivo): 58.3 ± 44.7 ng·h/mL | Apparent half-life (in vivo; sheep, in vivo): 9.5 ± 2.2 h | Cmax (in vivo; sheep, in vivo): 8,279 ± 3,376 pg/ml

CCC(=O)O[C@]1(C(=O)SCF)[C@H](C)C[C@H]2[C@@H]3C[C@H](F)C4=CC(=O)C=C[C@]4(C)[C@@]3(F)[C@@H](O)C[C@@]21C [Fluticasone Propionate 0.005%]
Difference with Placebo (neat vs spiked recovery) ([1]; 0.1N HC1 (1 hour)): 6.03% | Difference with Placebo (neat vs spiked recovery) ([1]; 0.1N NaOH (1 hour)): 0.19% | Difference with Placebo (neat vs spiked recovery) ([1]; 3% H2O2 (1 hour)): 4.03% | Difference with Placebo (neat vs spiked recovery) ([1]; 60° C. (3 days)): 1.09% | Difference with Placebo (neat vs spiked recovery) ([1]; Control (undegraded FP, kept at 4 C.)): 0.2-1.1% ^ | Difference with Placebo (neat vs spiked recovery) ([1]; White light (3 days)): 2.71%

C[C@@H]1C[C@H]2[C@@H]3CCC4=CC(=O)C=C[C@]4(C)[C@@]3(Cl)[C@@H](O)C[C@]2(C)[C@@]1(OC(=O)c1ccco1)C(=O)CCl [MFM, mometasone furoate monohydrate]
degradation due to the cream making process ([2]; 0.1% MFM cream, HPLC): no apparent degradation | Peak Area MFM ([2]; Acid): 116.720 | Peak Area RRT = 0.61 ([2]; Acid): no peaks | Peak Area RRT = 0.71 ([2]; Acid): no peaks | Peak Area RRT = 0.79 ([2]; Acid): no peaks | Peak Area RRT = 0.87 ([2]; Acid): no peaks | Peak Area RRT = 0.96 ([2]; Acid): 2.964 | Peak Area RRT = 1.07 ([2]; Acid): 0.05 | Peak Area RRT = 1.12 ([2]; Acid): 0.353 | Total MFM-Related Area ([2]; Acid): 120.087 | Peak Area MFM ([2]; Base): 2.991 | Peak Area RRT = 0.61 ([2]; Base): 0.097 | Peak Area RRT = 0.71 ([2]; Base): 0.143 | Peak Area RRT = 0.79 ([2]; Base): 0.433 | Peak Area RRT = 0.87 ([2]; Base): 5.187 | Peak Area RRT = 0.96 ([2]; Base): 14.967 | Peak Area RRT = 1.07 ([2]; Base): 55.374 | Peak Area RRT = 1.12 ([2]; Base): 10.016 | Total MFM-Related Area ([2]; Base): 89.208 | Peak Area MFM ([2]; Control): 125.120 | Peak Area RRT = 0.61 ([2]; Control): no peaks | Peak Area RRT = 0.71 ([2]; Control): no peaks | Peak Area RRT = 0.79 ([2]; Control): no peaks | Peak Area RRT = 0.87 ([2]; Control): no peaks | Peak Area RRT = 0.96 ([2]; Control): 0.171 | Peak Area RRT = 1.07 ([2]; Control): no peaks | Peak Area RRT = 1.12 ([2]; Control): no peaks | Total MFM-Related Area ([2]; Control): 125.291 | Peak Area MFM ([2]; Heat): 122.536 | Peak Area RRT = 0.61 ([2]; Heat): no peaks | Peak Area RRT = 0.71 ([2]; Heat): no peaks | Peak Area RRT = 0.79 ([2]; Heat): no peaks | Peak Area RRT = 0.87 ([2]; Heat): no peaks | Peak Area RRT = 0.96 ([2]; Heat): 0.161 | Peak Area RRT = 1.07 ([2]; Heat): no peaks | Peak Area RRT = 1.12 ([2]; Heat): no peaks | Total MFM-Related Area ([2]; Heat): 122.697 | Peak Area MFM ([2]; Light): 123.671 | Peak Area RRT = 0.61 ([2]; Light): no peaks | Peak Area RRT = 0.71 ([2]; Light): no peaks | Peak Area RRT = 0.79 ([2]; Light): no peaks | Peak Area RRT = 0.87 ([2]; Light): no peaks | Peak Area RRT = 0.96 ([2]; Light): 0.152 | Peak Area RRT = 1.07 ([2]; Light): no peaks | Peak Area RRT = 1.12 ([2]; Light): no peaks | Total MFM-Related Area ([2]; Light): 123.823 | Peak Area MFM ([2]; Peroxide): 128.187 | Peak Area RRT = 0.61 ([2]; Peroxide): no peaks | Peak Area RRT = 0.71 ([2]; Peroxide): no peaks | Peak Area RRT = 0.79 ([2]; Peroxide): no peaks | Peak Area RRT = 0.87 ([2]; Peroxide): no peaks | Peak Area RRT = 0.96 ([2]; Peroxide): 0.176 | Peak Area RRT = 1.07 ([2]; Peroxide): no peaks | Peak Area RRT = 1.12 ([2]; Peroxide): no peaks | Total MFM-Related Area ([2]; Peroxide): 128.363 | Degradant peak, RRT 0.61 with respect to MFM [3, 4]: detected (≥0.05% Peak Area; detected above the 0.05% cutoff) | Degradant peak, RRT 0.71 with respect to MFM [3, 4]: detected (≥0.05% Peak Area; detected above the 0.05% cutoff) | Degradant peak, RRT 0.79 with respect to MFM [3, 4]: detected (≥0.05% Peak Area; detected above the 0.05% cutoff) | Degradant peak, RRT 1.07 with respect to MFM [3, 4]: detected (≥0.05% Peak Area; detected above the 0.05% cutoff) | Degradant peak, RRT 0.87* with respect to MFM [3, 4]: detected (≥0.05% Peak Area; detected above the 0.05% cutoff) | Degradant peak, RRT 0.96* with respect to MFM [3, 4]: detected (≥0.05% Peak Area; detected above the 0.05% cutoff) | Degradant peak, RRT 1.12* with respect to MFM [3, 4]: detected (≥0.05% Peak Area; detected above the 0.05% cutoff) | Degradant peak, RRT 0.61 with respect to MFM [3, 5]: — | Degradant peak, RRT 0.71 with respect to MFM [3, 5]: — | Degradant peak, RRT 0.79 with respect to MFM [3, 5]: — | Degradant peak, RRT 1.07 with respect to MFM [3, 5]: detected (≥0.05% Peak Area; detected above the 0.05% cutoff) | Degradant peak, RRT 0.87* with respect to MFM [3, 5]: — | Degradant peak, RRT 0.96* with respect to MFM [3, 5]: detected (≥0.05% Peak Area; detected above the 0.05% cutoff) | Degradant peak, RRT 1.12* with respect to MFM [3, 5]: detected (≥0.05% Peak Area; detected above the 0.05% cutoff) | Degradant peak, RRT 0.61 with respect to MFM [3, 6]: — | Degradant peak, RRT 0.71 with respect to MFM [3, 6]: — | Degradant peak, RRT 0.79 with respect to MFM [3, 6]: — | Degradant peak, RRT 1.07 with respect to MFM [3, 6]: — | Degradant peak, RRT 0.87* with respect to MFM [3, 6]: — | Degradant peak, RRT 0.96* with respect to MFM [3, 6]: detected (≥0.05% Peak Area; detected above the 0.05% cutoff) | Degradant peak, RRT 1.12* with respect to MFM [3, 6]: — | Degradant peak, RRT 0.61 with respect to MFM [3, 7]: — | Degradant peak, RRT 0.71 with respect to MFM [3, 7]: — | Degradant peak, RRT 0.79 with respect to MFM [3, 7]: — | Degradant peak, RRT 1.07 with respect to MFM [3, 7]: — | Degradant peak, RRT 0.87* with respect to MFM [3, 7]: — | Degradant peak, RRT 0.96* with respect to MFM [3, 7]: detected (≥0.05% Peak Area; detected above the 0.05% cutoff) | Degradant peak, RRT 1.12* with respect to MFM [3, 7]: — | Degradant peak, RRT 0.61 with respect to MFM [3, 8]: — | Degradant peak, RRT 0.71 with respect to MFM [3, 8]: — | Degradant peak, RRT 0.79 with respect to MFM [3, 8]: — | Degradant peak, RRT 1.07 with respect to MFM [3, 8]: — | Degradant peak, RRT 0.87* with respect to MFM [3, 8]: — | Degradant peak, RRT 0.96* with respect to MFM [3, 8]: — | Degradant peak, RRT 1.12* with respect to MFM [3, 8]: — | Actual Amount ([3]; Acid (0.1N HCl, 1 hour)): 240.289 µg/mL | Actual Amount ([3]; Base (0.1N NaOH, 1 hour)): 6.091 µg/mL | Actual Amount ([3]; Control): 254.279 µg/mL | Actual Amount ([3]; Heat (60° C./5 days)): 249.211 µg/mL | Actual Amount ([3]; Light (white light, 5 days)): 249.916 µg/mL | Actual Amount ([3]; Peroxide (3% H2O2, 1 hour)): 262.576 µg/mL | Degradant peak, RRT 0.61 with respect to MFM ([3]; neat material, 4° C. (Control)): — | Degradant peak, RRT 0.71 with respect to MFM ([3]; neat material, 4° C. (Control)): — | Degradant peak, RRT 0.79 with respect to MFM ([3]; neat material, 4° C. (Control)): — | Degradant peak, RRT 1.07 with respect to MFM ([3]; neat material, 4° C. (Control)): — | Degradant peak, RRT 0.87* with respect to MFM ([3]; neat material, 4° C. (Control)): — | Degradant peak, RRT 0.96* with respect to MFM ([3]; neat material, 4° C. (Control)): detected (≥0.05% Peak Area; detected above the 0.05% cutoff) | Degradant peak, RRT 1.12* with respect to MFM ([3]; neat material, 4° C. (Control)): —
